Values belong to the molecule of their own block, whether it stands above or below them.
Key:
[1] = Encapsulation of steroids into PLGA nanoparticles (steroid content by HPLC); type: physicochemical; settings: for Steroid/nanoparticle (wt %): PLGA nanoparticles
Protocol: Each mixture was centrifuged at 12,000 rpm for 5 min and the supernatant was discarded to obtain precipitates in the form of zinc-steroids or iron-steroids. […] To each of the resultant solutions, an aqueous solution of zinc acetate was added and the mixture was allowed to stand for 2 hours at room temperature. […] The mixture was then centrifuged at 20,000 G for 20 min. Following the removal of the supernatant, the residue was resuspended in water and the suspension was again centrifuged to wash the nanoparticles. […] Similarly, the amount of water-insoluble steroid was determined for the nanoparticles prepared by different method without metal ions.

[2] = Formation of water-insoluble precipitates of drugs with metal ions (turbidity observed); type: physicochemical; settings: 20 mM drug in 0.2M Tris-HCl pH 7.8 + equal volume 100 mM metal ion
Protocol: Compounds shown in Table 1 below were used to as the low-molecular weight, water-soluble and non-peptide drug having phosphate groups. […] The solution was then added to equal volume of 100 mM aqueous solutions of different metal ions. The turbidity of each of the resulting mixtures was observed.

[3] = as above; type: physicochemical; settings: for Formation of precipitates with metal ions: 3N HCl, 20 mM drug in 0.2M Tris-HCl pH 7.8
[4] = tested on: inflammatory sites; assay: Accumulation of nanoparticles in inflammatory sites (carrageenin leg edema, fluorescence microscopy); type: in vivo, male Lewis rats; settings: single tail vein injection 4 hours after carrageenin; 2 hours after administration
Protocol: Inflammation was induced by injecting 100 μl physiological saline containing 1% carrageenin in the left hind paw of male Lewis rats. After 4 hours, single dosages of rhodamine-encapsulating nanoparticles of two different sizes (200 nm and 500 nm) were injected into a tail vein. 2 hours after administration, the resultant leg edema was cut and cryostat sections were prepared.
As controls, one group was administered with physiological saline and another group with rhodamine alone.

Molecule: CCC(=O)OCC(=O)[C@@]1(OC(=O)CC)[C@@H](C)C[C@H]2[C@@H]3CCC4=CC(=O)C=C[C@]4(C)[C@@]3(F)[C@@H](O)C[C@@]21C [BDP, betamethasone dipropionate]
Steroid/nanoparticle (wt %) [1]: 0.47 wt %

Molecule: C[C@H]1C[C@H]2[C@@H]3CCC4=CC(=O)C=C[C@]4(C)[C@@]3(F)[C@@H](O)C[C@]2(C)[C@@]1(O)C(=O)COP(=O)(O)O [BP-Fe, betamethasone phosphate]
Steroid/nanoparticle (wt %) [1]: 1.15 wt %

Molecule: C[C@H]1C[C@H]2[C@@H]3CCC4=CC(=O)C=C[C@]4(C)[C@@]3(F)[C@@H](O)C[C@]2(C)[C@@]1(O)C(=O)COP(=O)(O)O [BP-Na, betamethasone phosphate]
Steroid/nanoparticle (wt %) [1]: 0 wt %

Molecule: C[C@H]1C[C@H]2[C@@H]3CCC4=CC(=O)C=C[C@]4(C)[C@@]3(F)[C@@H](O)C[C@]2(C)[C@@]1(O)C(=O)COP(=O)(O)O [BP-Zn, betamethasone phosphate]
Steroid/nanoparticle (wt %) [1]: 2.03 wt %

Molecule: C[C@@H]1C[C@H]2[C@@H]3CCC4=CC(=O)C=C[C@]4(C)[C@@]3(F)[C@@H](O)C[C@]2(C)[C@@]1(O)C(=O)COP(=O)(O)O [DP-Na, dexamethasone phosphate]
Steroid/nanoparticle (wt %) [1]: 0 wt %

Molecule: Naphthyl-phosphate
Formation of precipitates with metal ions ([2]; CuCl2): − | Formation of precipitates with metal ions ([2]; FeCl2): +++ | Formation of precipitates with metal ions ([2]; FeCl3): +++ | Formation of precipitates with metal ions ([2]; MgCl2): − | Formation of precipitates with metal ions ([2]; NiCl2): − | Formation of precipitates with metal ions ([2]; Zn(CH3COO)2): +++ | Formation of precipitates with metal ions ([2]; ZnCl2): +++ | Formation of precipitates with metal ions [3]: −

Further lines, results first:

Steroid/nanoparticle (wt %) [1]: 1.15 wt %
Molecule: C[C@@H]1C[C@H]2[C@@H]3CCC4=CC(=O)C=C[C@]4(C)[C@@]3(F)[C@@H](O)C[C@]2(C)[C@@]1(O)C(=O)COP(=O)(O)O [DP-Zn, dexamethasone phosphate]

Formation of precipitates with metal ions ([2]; CuCl2): +++ | Formation of precipitates with metal ions ([2]; FeCl2): +++ | Formation of precipitates with metal ions ([2]; FeCl3): +++ | Formation of precipitates with metal ions ([2]; MgCl2): − | Formation of precipitates with metal ions ([2]; NiCl2): + | Formation of precipitates with metal ions ([2]; Zn(CH3COO)2): +++ | Formation of precipitates with metal ions ([2]; ZnCl2): +++ | Formation of precipitates with metal ions [3]: −
Molecule: C[C@@H]1C[C@H]2[C@@H]3CCC4=CC(=O)C=C[C@]4(C)[C@@]3(F)[C@@H](O)C[C@]2(C)[C@@]1(O)C(=O)COP(=O)(O)O [Dexamethasone phosphate, dexamethasone phosphate]

Steroid/nanoparticle (wt %) [1]: 0.15 wt %
Molecule: CC(=O)OCC(=O)[C@@]1(O)[C@@H](C)C[C@H]2[C@@H]3CCC4=CC(=O)C=C[C@]4(C)[C@@]3(F)[C@@H](O)C[C@@]21C [betamethasone acetate]

dispersion state of the nanoparticles ([1]; 500 μl or less of acetone): formed aggregates | dispersion state of the nanoparticles ([1]; 700 μl acetone): remained stably dispersed | Steroid/nanoparticle (wt %) ([1]; zinc precipitate of 5 mg, acetone 700 μl): 7.34 wt % | Steroid/nanoparticle (wt %) ([1]; zinc precipitate of 5 mg, acetone 900 μl): 4.28 wt % | Steroid/nanoparticle (wt %) ([1]; zinc precipitate of 5 mg, acetone 1100 μl): 3.46 wt % | Steroid/nanoparticle (wt %) ([1]; zinc precipitate of 5 mg, acetone 1300 μl): 2.71 wt % | Steroid/nanoparticle (wt %) ([1]; zinc precipitate of 5 mg, acetone 1500 μl): 1.93 wt % | Formation of precipitates with metal ions ([2]; CuCl2): +++ | Formation of precipitates with metal ions ([2]; FeCl2): +++ | Formation of precipitates with metal ions ([2]; FeCl3): +++ | Formation of precipitates with metal ions ([2]; MgCl2): − | Formation of precipitates with metal ions ([2]; NiCl2): − | Formation of precipitates with metal ions ([2]; Zn(CH3COO)2): +++ | Formation of precipitates with metal ions ([2]; ZnCl2): +++ | Formation of precipitates with metal ions [3]: −
Molecule: C[C@H]1C[C@H]2[C@@H]3CCC4=CC(=O)C=C[C@]4(C)[C@@]3(F)[C@@H](O)C[C@]2(C)[C@@]1(O)C(=O)COP(=O)(O)O [betamethasone phosphate]

Formation of precipitates with metal ions ([2]; CuCl2): +++ | Formation of precipitates with metal ions ([2]; FeCl2): +++ | Formation of precipitates with metal ions ([2]; FeCl3): +++ | Formation of precipitates with metal ions ([2]; MgCl2): − | Formation of precipitates with metal ions ([2]; NiCl2): − | Formation of precipitates with metal ions ([2]; Zn(CH3COO)2): +++ | Formation of precipitates with metal ions ([2]; ZnCl2): +++ | Formation of precipitates with metal ions [3]: − | molar ratio with respect to zinc ion at which precipitate formation was most significant ([3]; zinc ion, molar ratio varied): approximately 1
Molecule: Cc1cc2nc3c(=O)[nH]c(=O)nc-3n(C[C@H](O)[C@H](O)[C@H](O)COP(=O)(O)O)c2cc1C [riboflavin phosphate]

Steroid/nanoparticle (wt %) [1]: 0 wt %
Molecule: hydrocortisone phosphate [HP-Na]

Steroid/nanoparticle (wt %) [1]: 1.05 wt %
Molecule: hydrocortisone phosphate [HP-Zn]

accumulation of the nanoparticles in the inflammatory sites (fluorescence in tissue sections) [4]: No significant accumulation
Molecule: rhodamine

From patent US20060233883A1, “Intravenous nanoparticles for targeting drug delivery and sustained drug release” (priority 2003, published 2006)
